Here are results for 31 compounds from patent US20220144838A1, “Compounds as Inhibitors of Macrophage Migration Inhibitory Factor” (NANJING IMMUNOPHAGE BIOTECH CO., LTD., priority 2019, published 2022).

For the assay, the target named is T1, MIF (Homo sapiens, UniProt P14174).
T1 sequence (P14174 2-115 limits assumed): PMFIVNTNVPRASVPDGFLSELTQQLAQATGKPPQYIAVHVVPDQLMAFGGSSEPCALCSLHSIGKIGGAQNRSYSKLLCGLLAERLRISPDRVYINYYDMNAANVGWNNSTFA
Nature of the assay: MIF tautomerase assay using pHPP as substrate. The note with it: inhibition of the MIF enzyme in vitro; mean of multiple test results; read-out: Tautomerase Inhibition pIC50 (converted). Format: biochemical. On the procedure:
Tautomerase Assay Using pHPP as Substrate
This assay measured MIF's tautomerase activity in a cell-free system and was based on the determination of initial rates of the MIF-catalyzed conversion of the ketonic into the enolic tautomer of pHPP. This was achieved by spectrophotometric quantification of the complex between borate and the product of the reaction (enolic pHPP). The substrate was prepared by conversion of the enolic pHPP into its ketonic form. To achieve this, 0.5 M pHPP in methanol was diluted 10-fold with 50 mM sodium acetate buffer at pH 6.0, and then the suspension was shaken for 24 h at room temperature in darkness, and finally stored at 4° C. for not more than 1 week, with 5 min sonication being recommended before use.
Assays were performed in small-volume clear-bottom black 96 or 384-well polystyrene plates (Greiner Bio-One). First, 2 μL of the enzyme solution containing 6 nM of MIF in DPBS, 0.025% w/v BSA, and 300 μM CHAPS was dispensed onto sample and negative control wells using Multidrop Combi with metallic tip cassettes (Thermo Fisher Scientific) previously treated with Sigmacote. Then, 2 μL of the same buffer without MIF was dispensed onto positive control wells. The reaction was started by addition of the following to all wells: 2 μL of substrate solution containing 3 mM ketonic pHPP in 200 mM boric acid, 25 mM sodium phosphate, 0.025% w/v BSA, and 300 μM CHAPS at pH 6.0. In order to remove bubbles, the plate was centrifuged in an Allegra 25R centrifuge (Beckman Coulter, Inc., Brea, Calif.) at 1000 rpm for 2 min at room temperature. Then, the plate was read in an EnVision. Final concentrations of enzyme and substrate were 3 nM and 1.5 mM, respectively. Initial rates were calculated for each well as the slope of the absorbance progress curve.
All exemplified compounds (Examples 1-230) were tested in the MIF tautomerase assay or a similar assay described above. The data mentioned below represents a mean pIC50 value of multiple test results. It is understood that the data illustrated below may have reasonable variation depending on the specific conditions and procedures used by the person conducting the testing.
Regarding `O=C(O)Cn1cnc2c(-c3ccnc4[nH]ccc34)nc(N3CCN(c4ccc(O)cc4)CC3)nc21` [Example 35, 2-(2-(4-(4-hydroxyphenyl)piperazin-1-yl)-6-(1H-pyrrolo[2,3-b]pyridin-4-yl)-9H-purin-9-yl)acetic acid], the IC50 is 100 to 977 nM.
As to `Cc1nc(N2CCC(O)(c3ccc(O)cc3)CC2)nc2c1ncn2CCCCC(=O)O` [Example 160, 5-(2-(4-hydroxy-4-(4-hydroxyphenyl)piperidin-1-yl)-6-methyl-9H-purin-9-yl)pentanoic acid], the IC50 is above 10000 nM.
With `Oc1ccc(C2(O)CCN(c3nc(N4CCCCC4)c4ncn(-c5ccncc5)c4n3)CC2)cc1` [Example 211, 1 4-(4-hydroxyphenyl)-1-(6-(piperidin-1-yl)-9-(pyridin-4-yl)-9H-purin-2-yl)piperidin-4-ol] the figure was 1000 to 9770 nM.
In the case of `O=C(O)Cn1cnc2c(N3N=CC4C=CC=CC43)nc(N3CCN(c4ccccc4)CC3)nc21` (stereo not shown) [Example 48, 2-(6-(3a,7a-dihydro-1H-indazol-1-yl)-2-(4-phenylpiperazin-1-yl)-9H-purin-9-yl)acetic acid], the IC50 was 100 to 977 nM.
As to `O=C(O)Cn1cnc2c(-n3cnc4ccccc43)nc(N3CCN(c4ccc(O)cc4)CC3)nc21` [Example 41, 2-(6-(1H-benzo[d]imidazol-1-yl)-2-(4-(4-hydroxyphenyl)piperazin-1-yl)-9H-purin-9-yl)acetic acid], the IC50 is 10 to 97.7 nM.
Regarding `Oc1ccc(N2CCN(c3nc(-n4ncc5ccccc54)c4ncn(-c5cccnc5)c4n3)CC2)cc1` [Example 12, 4-(4-(6-(1H-indazol-1-yl)-9-(pyridin-3-yl)-9H-purin-2-yl)piperazin-1-yl)phenol], the IC50 is 100 to 977 nM.
On to `Cc1nc(N2CCN(c3ccc(O)cc3)CC2)nc2c1ncn2-c1cc(Cl)cnn1` [Example 63, 4-(4-(9-(5-chloropyridazin-3-yl)-6-methyl-9H-purin-2-yl)piperazin-1-yl)phenol], for which the IC50 was above 10000 nM.
For the compound `Cc1nc(N2CCC(O)(c3ccc(O)cc3)CC2)nc2c1ncn2-c1ccc(C#N)cc1` [Example 185, 4-(2-(4-hydroxy-4-(4-hydroxyphenyl)piperidin-1-yl)-6-methyl-9H-purin-9-yl)benzonitrile], the IC50 was above 10000 nM.
In the case of `O=C(O)C1CCCN(c2nc(N3CCN(c4ccc(O)cc4)CC3)nc3c2ncn3-c2ccncc2)C1` (stereo not shown) [Example 170, 1-(2-(4-(4-hydroxyphenyl)piperazin-1-yl)-9-(pyridin-4-yl)-9H-purin-6-yl)piperidine-3-carboxylic acid], the IC50 was 10 to 97.7 nM.
For `OCCNc1nc(N2CCN(c3ccc(O)cc3)CC2)nc2c1ncn2-c1cccnc1` [Example 112, 4-(4-(6-((2-hydroxyethyl)amino)-9-(pyridin-3-yl)-9H-purin-2-yl)piperazin-1-yl)phenol], the IC50 is 100 to 977 nM.
As for `Nc1nc(N2CC(O)(c3ccc(CO)cc3)C2)nc2c1ncn2-c1ccncc1` [Example 214, 1-(6-amino-9-(pyridin-4-yl)-9H-purin-2-yl)-3-(4-(hydroxymethyl)phenyl) azetidin-3-ol], the IC50 is above 10000 nM.
Regarding `CCC(CO)N(C)c1nc(N2CCN(c3ccc(O)cc3)CC2)nc2c1ncn2-c1cccnc1` (stereo not shown) [Example 183, 4-(4-(6-((1-hydroxybutan-2-yl)(methyl)amino)-9-(pyridin-3-yl)-9H-purin-2-yl)piperazin-1-yl)phenol], the IC50 is above 10000 nM.
With `O=C(O)Cn1cnc2c(N3Cc4ccccc4C3=O)nc(N3Cc4ccccc4C3=O)nc21` [Example 27, 2-(2,6-bis(1-oxoisoindolin-2-yl)-9H-purin-9-yl)acetic acid] the figure was above 10000 nM; with `Nc1nc(N2CCN(c3ccc(O)cc3)CC2)nc2c1ncn2C1CCNCC1` [Example 188, 4-(4-(6-amino-9-(piperidin-4-yl)-9H-purin-2-yl)piperazin-1-yl)phenol], above 10000 nM; with `O=C(O)Cn1cnc2c(-n3nc(-c4cccnc4)c4ccccc43)nc(N3CCN(c4ccc(O)cc4)CC3)nc21` [Example 36, 2-(2-(4-(4-hydroxyphenyl)piperazin-1-yl)-6-(3-(pyridin-3-yl)-1H-indazol-1-yl)-9H-purin-9-yl)acetic acid], 100 to 977 nM.
`Nc1nc(N2CCC(O)(c3ccccc3)CC2)nc2c1ncn2-c1ccncc1` [Example 202, 1-(6-amino-9-(pyridin-4-yl)-9H-purin-2-yl)-4-phenylpiperidin-4-ol]: the IC50 was above 10000 nM.
As for `Nc1ccc(N2CCN(c3nc(N)c4ncn(-c5ccncc5)c4n3)CC2)nc1` [Example 190, 2-(4-(5-aminopyridin-2-yl)piperazin-1-yl)-9-(pyridin-4-yl)-9H-purin-6-amine], the figure is above 10000 nM.
`CN(c1ccncc1)c1nc(N2CCC(O)(c3ccc(O)cc3)CC2)nc2[nH]cnc12` [Example 220, 4-(4-hydroxyphenyl)-1-(6-(methyl(pyridin-4-yl)amino)-9H-purin-2-yl)piperidin-4-ol]: the IC50 was above 10000 nM.
With `Oc1ccc(N2CCN(c3nc(N4CCc5ccccc54)c4ncn(-c5cccnc5)c4n3)CC2)cc1` [Example 39, 4-(4-(6-(indolin-1-yl)-9-(pyridin-3-yl)-9H-purin-2-yl)piperazin-1-yl)phenol], the IC50 is 100 to 977 nM.
Turning to `CC(CO)(CO)Nc1nc(N2CCN(c3ccc(O)cc3)CC2)nc2c1ncn2-c1ccncc1` [Example 177, 2-((2-(4-(4-hydroxyphenyl)piperazin-1-yl)-9-(pyridin-4-yl)-9H-purin-6-yl)amino)-2-methylpropane-1,3-diol], the IC50 is 100 to 977 nM.
Take `O=C(O)Cn1cnc2c(-n3nnc4cccnc43)nc(N3CCN(c4ccc(O)cc4)CC3)nc21` [Example 120, 2-(6-(3H-[1,2,3]triazolo[4,5-b]pyridin-3-yl)-2-(4-(4-hydroxyphenyl)piperazin-1-yl)-9H-purin-9-yl)acetic acid]: the IC50 was 10 to 97.7 nM.
Consider `Cc1nc(N2CCN(c3ccc(O)cc3)CC2)nc2c1ncn2-c1ccccc1` [Example 43, 4-(4-(6-methyl-9-phenyl-9H-purin-2-yl)piperazin-1-yl)phenol], for which the IC50 is 100 to 977 nM.
For `NCCn1cnc2c(-n3ncc4ccccc43)nc(N3CCN(c4ccc(O)cc4)CC3)nc21` [Example 137, 4-(4-(9-(2-aminoethyl)-6-(1H-indazol-1-yl)-9H-purin-2-yl)piperazin-1-yl)phenol], the IC50 was 1000 to 9770 nM.
`CC(C(=O)O)n1cnc2c(-n3ncc4ccccc43)nc(N3CCN(c4ccc(O)cn4)CC3)nc21` (stereo not shown) [Example 145, 2-(2-(4-(5-hydroxypyridin-2-yl)piperazin-1-yl)-6-(1H-indazol-1-yl)-9H-purin-9-yl)propanoic acid]: the IC50 is 10 to 97.7 nM.
Take `COC(=O)Cn1cnc2c(-n3ncc4ccccc43)nc(N3CCN(c4ccc(O)cc4)CC3)nc21` [Example 131, methyl 2-(2-(4-(4-hydroxyphenyl)piperazin-1-yl)-6-(1H-indazol-1-yl)-9H-purin-9-yl)acetate]: the IC50 was 100 to 977 nM.
On to `CC1CN(c2nc(N)c3ncn(-c4ccncc4)c3n2)CCN1c1ccc(O)cc1` (stereo not shown) [Example 186, 4-(4-(6-amino-9-(pyridin-4-yl)-9H-purin-2-yl)-2-methylpiperazin-1-yl)phenol], for which the IC50 is 100 to 977 nM.
As for `Oc1ccc(C2(O)CCN(c3nc(N4C[C@H](O)[C@@H](O)C4)c4ncn(-c5ccncc5)c4n3)CC2)cc1` [Example 207, (3S,4S)-1-(2-(4-hydroxy-4-(4-hydroxyphenyl)piperidin-1-yl)-9-(pyridin-4-yl)-9H-purin-6-yl)pyrrolidine-3,4-diol], the IC50 is 100 to 977 nM.
With `CS(=O)(=O)NC(=O)Cn1cnc2c(-n3ncc4ccccc43)nc(N3CCN(c4ccc(O)cc4)CC3)nc21` [Example 57, 2-(2-(4-(4-hydroxyphenyl)piperazin-1-yl)-6-(1H-indazol-1-yl)-9H-purin-9-yl)-N-(methylsulfonyl)acetamide] the figure was 10 to 97.7 nM; with `O=C(O)Cn1cnc2nc(N3CCN(c4ccc(O)cn4)CC3)nc(-n3ncc4ccccc43)c21` [Example 22, 2-(2-(4-(5-hydroxypyridin-2-yl)piperazin-1-yl)-6-(1H-indazol-1-yl)-7H-purin-7-yl)acetic acid], 1000 to 9770 nM; with `Cc1nc(N2CCN(c3ccc(O)cc3)CC2)nc2c1ncn2-c1cccc(O)c1Cl` [Example 37, 2-chloro-3-(2-(4-(4-hydroxyphenyl)piperazin-1-yl)-6-methyl-9H-purin-9-yl)phenol], 1000 to 9770 nM.
Consider `Nc1nc(N2CCC(O)(c3ccc(O)cc3)CC2)nc2c1ncn2-c1ccncc1` [Example 155, 1-(6-amino-9-(pyridin-4-yl)-9H-purin-2-yl)-4-(4-hydroxyphenyl)piperidin-4-ol], for which the IC50 is 10 to 97.7 nM.
